Data: PubChem BioAssay AID2060611 (Molecular Pharmacology Branch, DTP, NCI, 2025)
Blank lines part the entries; values can stand above or below the molecule they belong to.

Test system: 628569-122-R-J1-PDC complex spheroid viability
Assay: Anticancer human tumor 628569-122-R-J1-PDC patient-derived head and neck squamous carcinoma cell line growth inhibition [CLK]
Settings: for IC50: curve of first compound; for viability, T/C: stronger effect = lower value
Outline: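 Patient-derived tumor cells grown as complex spheroids with HUVEC endothelial cells and mesenchymal stem cells, treated with drug combinations. Concentrations descend in half-log steps from near clinical Cmax, or from 10 microM if Cmax unknown.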

[1] = second compound 0.0316 µM, first compound 0.0316 µM
[2] = second compound 0.0316 µM, first compound 0.1 µM
[3] = second compound 0.0316 µM, first compound 0.316 µM
[4] = second compound 0.0316 µM, first compound 1 µM
[5] = second compound 0.0316 µM, first compound 3.16 µM
[6] = second compound 0.0316 µM, first compound 10 µM
[7] = second compound 0.1 µM, first compound 0.0316 µM
[8] = second compound 0.1 µM, first compound 0.1 µM
[9] = second compound 0.1 µM, first compound 0.316 µM
[10] = second compound 0.1 µM, first compound 1 µM
[11] = second compound 0.1 µM, first compound 3.16 µM
[12] = second compound 0.1 µM, first compound 10 µM
[13] = second compound 0.316 µM, first compound 0.0316 µM
[14] = second compound 0.316 µM, first compound 0.1 µM
[15] = second compound 0.316 µM, first compound 0.316 µM
[16] = second compound 0.316 µM, first compound 1 µM
[17] = second compound 0.316 µM, first compound 3.16 µM
[18] = second compound 0.316 µM, first compound 10 µM
[19] = second compound 1 µM, first compound 0.0316 µM
[20] = second compound 1 µM, first compound 0.1 µM
[21] = second compound 1 µM, first compound 0.316 µM
[22] = second compound 1 µM, first compound 1 µM
[23] = second compound 1 µM, first compound 3.16 µM
[24] = second compound 1 µM, first compound 10 µM
[25] = second compound 3.16 µM, first compound 0.0316 µM
[26] = second compound 3.16 µM, first compound 0.1 µM
[27] = second compound 3.16 µM, first compound 0.316 µM
[28] = second compound 3.16 µM, first compound 1 µM
[29] = second compound 3.16 µM, first compound 3.16 µM
[30] = second compound 3.16 µM, first compound 10 µM
[31] = second compound 10 µM, first compound 0.0316 µM
[32] = second compound 10 µM, first compound 0.1 µM
[33] = second compound 10 µM, first compound 0.316 µM
[34] = second compound 10 µM, first compound 1 µM
[35] = second compound 10 µM, first compound 3.16 µM
[36] = second compound 10 µM, first compound 10 µM
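Note: spheroids exposed to agents for seven days before readout.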
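Throughout, for viability, T/C: 100% = DMSO vehicle control viability.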

Structure (SMILES): C#Cc1c(F)ccc2cc(O)cc(-c3ncc4c(N5CC6CCC(C5)N6)nc(OCC56CCCN5CC(F)C6)nc4c3F)c12 (stereo not given) + CNC(=O)c1ccc(Nc2nc(OC3CCCC3)c3c(-c4ccc5nc(C)oc5c4)c[nH]c3n2)c(OC)c1
- IC50 (second compound 0.0316 µM): > 10000 nM
- IC50 (second compound 0.1 µM): > 10000 nM
- IC50 (second compound 0.316 µM): 1350 nM
- IC50 (second compound 1 µM): < 31.6 nM
- IC50 (second compound 3.16 µM): < 31.6 nM
- IC50 (second compound 10 µM): < 31.6 nM
- viability, T/C [1]: 103%
- viability, T/C [2]: 94.2%
- viability, T/C [3]: 84.8%
- viability, T/C [4]: 100%
- viability, T/C [5]: 98.7%
- viability, T/C [6]: 98.8%
- viability, T/C [7]: 71.2%
- viability, T/C [8]: 63.2%
- viability, T/C [9]: 51.5%
- viability, T/C [10]: 53.5%
- viability, T/C [11]: 61.7%
- viability, T/C [12]: 59.3%
- viability, T/C [13]: 55.8%
- viability, T/C [14]: 52.9%
- viability, T/C [15]: 50.2%
- viability, T/C [16]: 53.4%
- viability, T/C [17]: 47.5%
- viability, T/C [18]: 44.1%
- viability, T/C [19]: 46%
- viability, T/C [20]: 45.6%
- viability, T/C [21]: 47.4%
- viability, T/C [22]: 50.9%
- viability, T/C [23]: 44.9%
- viability, T/C [24]: 52.3%
- viability, T/C [25]: 51.6%
- viability, T/C [26]: 43.1%
- viability, T/C [27]: 47.5%
- viability, T/C [28]: 39.2%
- viability, T/C [29]: 40.3%
- viability, T/C [30]: 28.5%
- viability, T/C [31]: 49.4%
- viability, T/C [32]: 42.4%
- viability, T/C [33]: 41.9%
- viability, T/C [34]: 41.4%
- viability, T/C [35]: 47.5%
- viability, T/C [36]: 29.7%

Structure (SMILES): CC(CO)NC(=O)c1cc(-c2ccc(Cl)cc2)nn(-c2cnn(C)c2)c1=O (stereo not given) + CNC(=O)c1ccc(Nc2nc(OC3CCCC3)c3c(-c4ccc5nc(C)oc5c4)c[nH]c3n2)c(OC)c1
- IC50 (second compound 0.0316 µM): > 10000 nM
- IC50 (second compound 0.1 µM): > 10000 nM
- IC50 (second compound 0.316 µM): > 10000 nM
- IC50 (second compound 1 µM): > 10000 nM
- IC50 (second compound 3.16 µM): > 10000 nM
- IC50 (second compound 10 µM): > 10000 nM
- viability, T/C [1]: 135%
- viability, T/C [2]: 176%
- viability, T/C [3]: 214%
- viability, T/C [4]: 189%
- viability, T/C [5]: 192%
- viability, T/C [6]: 169%
- viability, T/C [7]: 91.4%
- viability, T/C [8]: 87.9%
- viability, T/C [9]: 100%
- viability, T/C [10]: 125%
- viability, T/C [11]: 138%
- viability, T/C [12]: 124%
- viability, T/C [13]: 66.2%
- viability, T/C [14]: 82.6%
- viability, T/C [15]: 100%
- viability, T/C [16]: 104%
- viability, T/C [17]: 150%
- viability, T/C [18]: 97.4%
- viability, T/C [19]: 64.7%
- viability, T/C [20]: 68.7%
- viability, T/C [21]: 79.4%
- viability, T/C [22]: 89.6%
- viability, T/C [23]: 84.9%
- viability, T/C [24]: 81.6%
- viability, T/C [25]: 70.8%
- viability, T/C [26]: 66.2%
- viability, T/C [27]: 81%
- viability, T/C [28]: 77.6%
- viability, T/C [29]: 90%
- viability, T/C [30]: 82.4%
- viability, T/C [31]: 70%
- viability, T/C [32]: 59.4%
- viability, T/C [33]: 76.1%
- viability, T/C [34]: 93.1%
- viability, T/C [35]: 90.8%
- viability, T/C [36]: 79.3%

Structure (SMILES): COc1c(OCCCN2CCOCC2)ccc2c3n(c(=NC(=O)c4cnc(N)nc4)nc12)CCN3 + CNC(=O)c1ccc(Nc2nc(OC3CCCC3)c3c(-c4ccc5nc(C)oc5c4)c[nH]c3n2)c(OC)c1
- IC50 (second compound 0.0316 µM): 23.4 nM
- IC50 (second compound 0.1 µM): < 3.16 nM
- IC50 (second compound 0.316 µM): < 3.16 nM
- IC50 (second compound 1 µM): < 3.16 nM
- IC50 (second compound 3.16 µM): < 3.16 nM
- IC50 (second compound 10 µM): < 3.16 nM
- viability, T/C (second compound 0.0316 µM, first compound 0.00316 µM): 83.1%
- viability, T/C (second compound 0.0316 µM, first compound 0.01 µM): 66.5%
- viability, T/C [1]: 43.5%
- viability, T/C [2]: 25.6%
- viability, T/C [3]: 20.6%
- viability, T/C [4]: 5.3%
- viability, T/C (second compound 0.1 µM, first compound 0.00316 µM): 46.8%
- viability, T/C (second compound 0.1 µM, first compound 0.01 µM): 46.2%
- viability, T/C [7]: 28.7%
- viability, T/C [8]: 22%
- viability, T/C [9]: 19.6%
- viability, T/C [10]: 8.28%
- viability, T/C (second compound 0.316 µM, first compound 0.00316 µM): 48.3%
- viability, T/C (second compound 0.316 µM, first compound 0.01 µM): 47.7%
- viability, T/C [13]: 29.8%
- viability, T/C [14]: 17.1%
- viability, T/C [15]: 16.2%
- viability, T/C [16]: 6.59%
- viability, T/C (second compound 1 µM, first compound 0.00316 µM): 37.8%
- viability, T/C (second compound 1 µM, first compound 0.01 µM): 34.3%
- viability, T/C [19]: 27.3%
- viability, T/C [20]: 23.5%
- viability, T/C [21]: 13.9%
- viability, T/C [22]: 3.21%
- viability, T/C (second compound 3.16 µM, first compound 0.00316 µM): 41.6%
- viability, T/C (second compound 3.16 µM, first compound 0.01 µM): 34.7%
- viability, T/C [25]: 27.4%
- viability, T/C [26]: 15.4%
- viability, T/C [27]: 5.46%
- viability, T/C [28]: 3.02%
- viability, T/C (second compound 10 µM, first compound 0.00316 µM): 37.5%
- viability, T/C (second compound 10 µM, first compound 0.01 µM): 28.5%
- viability, T/C [31]: 30.3%
- viability, T/C [32]: 12.8%
- viability, T/C [33]: 21.6%
- viability, T/C [34]: 7.07%

More lines, main results first:

- IC50 (second compound 0.0316 µM): 5890 nM
- IC50 (second compound 0.1 µM): 4250 nM
- IC50 (second compound 0.316 µM): 3640 nM
- IC50 (second compound 1 µM): 31.6 nM
- IC50 (second compound 3.16 µM): < 31.6 nM
- IC50 (second compound 10 µM): < 31.6 nM
Structure (SMILES): C=C(F)C(=O)N1CCN(c2nc(OCC3CCCN3C)nc3c2CCN(c2cccc4cccc(Cl)c24)C3)CC1CC#N (stereo not given) + CNC(=O)c1ccc(Nc2nc(OC3CCCC3)c3c(-c4ccc5nc(C)oc5c4)c[nH]c3n2)c(OC)c1
- viability, T/C [1]: 84.5%
- viability, T/C [2]: 85.8%
- viability, T/C [3]: 88.8%
- viability, T/C [4]: 112%
- viability, T/C [5]: 126%
- viability, T/C [6]: 8.03%
- viability, T/C [7]: 58.8%
- viability, T/C [8]: 53.8%
- viability, T/C [9]: 65.5%
- viability, T/C [10]: 64%
- viability, T/C [11]: 90.2%
- viability, T/C [12]: 1.94%
- viability, T/C [13]: 54.6%
- viability, T/C [14]: 47.9%
- viability, T/C [15]: 49.3%
- viability, T/C [16]: 56.3%
- viability, T/C [17]: 72.1%
- viability, T/C [18]: 6.63%
- viability, T/C [19]: 46.5%
- viability, T/C [20]: 42.9%
- viability, T/C [21]: 43.7%
- viability, T/C [22]: 49%
- viability, T/C [23]: 62.8%
- viability, T/C [24]: 1.4%
- viability, T/C [25]: 46.2%
- viability, T/C [26]: 43.3%
- viability, T/C [27]: 45.4%
- viability, T/C [28]: 51.5%
- viability, T/C [29]: 48.1%
- viability, T/C [30]: 0.86%
- viability, T/C [31]: 53.9%
- viability, T/C [32]: 36.1%
- viability, T/C [33]: 46.7%
- viability, T/C [34]: 54.5%
- viability, T/C [35]: 43.8%
- viability, T/C [36]: 5.33%

- IC50 (second compound 0.0316 µM): > 10000 nM
- IC50 (second compound 0.1 µM): > 10000 nM
- IC50 (second compound 0.316 µM): > 10000 nM
- IC50 (second compound 1 µM): < 31.6 nM
- IC50 (second compound 3.16 µM): < 31.6 nM
- IC50 (second compound 10 µM): < 31.6 nM
Structure (SMILES): C=CC(=O)N1CCN(c2nc(=O)n(-c3c(C)ccnc3C(C)C)c3nc(-c4c(O)cccc4F)c(F)cc23)C(C)C1 (stereo not given) + CNC(=O)c1ccc(Nc2nc(OC3CCCC3)c3c(-c4ccc5nc(C)oc5c4)c[nH]c3n2)c(OC)c1
- viability, T/C [1]: 80%
- viability, T/C [2]: 105%
- viability, T/C [3]: 84.1%
- viability, T/C [4]: 105%
- viability, T/C [5]: 127%
- viability, T/C [6]: 125%
- viability, T/C [7]: 61.9%
- viability, T/C [8]: 64.2%
- viability, T/C [9]: 60%
- viability, T/C [10]: 59.7%
- viability, T/C [11]: 75.8%
- viability, T/C [12]: 81.1%
- viability, T/C [13]: 52.6%
- viability, T/C [14]: 59.9%
- viability, T/C [15]: 60.2%
- viability, T/C [16]: 62.9%
- viability, T/C [17]: 63.7%
- viability, T/C [18]: 67%
- viability, T/C [19]: 49.9%
- viability, T/C [20]: 47%
- viability, T/C [21]: 47.1%
- viability, T/C [22]: 58.4%
- viability, T/C [23]: 59.6%
- viability, T/C [24]: 59.8%
- viability, T/C [25]: 39.7%
- viability, T/C [26]: 45.9%
- viability, T/C [27]: 51.5%
- viability, T/C [28]: 50.4%
- viability, T/C [29]: 54.7%
- viability, T/C [30]: 53%
- viability, T/C [31]: 48.6%
- viability, T/C [32]: 37.7%
- viability, T/C [33]: 47.1%
- viability, T/C [34]: 44.9%
- viability, T/C [35]: 44.7%
- viability, T/C [36]: 44%
